How the values were obtained:
KCHSC [1] = test: Greenhouse test, pre-emergence (PE) soil application; format: in vivo, Kochia scoparia; set-up: key: % effect: 0 = no effect, 100 = full effect vs untreated
Text: (§1) The 1:1 mixture of the two soil types was used specifically for cultivating small-seeded dicotyledonous weed since the standard field soil on its own tends to silt up, which may have an adverse effect on the emergence of small-seeded weeds. The resistances mentioned in the tables were confirmed beforehand in standard monitoring experiments. Nevertheless, the origins examined may have additional, hitherto unconfirmed resistances to various mechanisms of action.
(§2) The pots were then cultivated in a greenhouse (12-16 h light, temperature day 20-22° C., night 15-18° C.) until the time of application. The pots were treated at various BBCH stages of the seeds/plants on a laboratory track sprayer with spray liquors comprising the compositions according to the invention, mixtures of the prior art or the individual components. Application of the active compounds or active compound combinations and wetting agents formulated as WG, WP, EC or otherwise was carried out at the appropriate growth stages of the plants. The amount of water used for spray application was 100-600 l/ha. After the treatment, the plants were returned to the greenhouses and fertilized and watered as required. The pots were cultivated in a greenhouse (12-16 h light, temperature day 20-22° C., night 15-18° C.).
(§3) 3 weeks after the application, the foliar effect was evaluated on a scale of 0-100%:
(§4) 0%=no noticeable effect compared to untreated plants
(§5) 100%=full effect compared to untreated plants
(§6) The following abbreviations were used: • BBCH the BBCH code provides information about the morphological development stage of a plant. Officially, the abbreviation denotes the Biologische Bundesanstalt, Bundessortenamt and CHemische Industrie [Federal Biological Institute for Agriculture and Forestry, Federal Office for Crop Plant Varieties, Chemical Industry]. The range of BBCH 00-10 denotes the germination stages of the seeds until surface penetration. The range of BBCH 11-25 denotes the leaf development stages until stocking (corresponds to the number of tillers or side-shoots). • PE pre-emergence soil application; BBCH of the seeds/plants 00-10 • PO post-emergence application on the green parts of the plants; BBCH of the plants 11-25 • IU soil loamy silt—standard field soil • l/ha liters per hectare • S sensitive—the weed populations are sensitive to the active compounds tested • TSR target-site resistance. The weed populations comprise biotypes having a site-of-action-specific resistance, i.e. the binding site at the site of action is modified as a result of natural mutations in the gene sequence so that the active compounds are no longer able to bind, or bind in an unsatisfactory manner, and are therefore no longer able to act. • NTR non-target-site herbicide resistance; this is differentiated, inter alia, into EMR (Enhanced Metabolic Resistance) (the weed populations comprise biotypes having metabolic resistance, i.e. the plants are capable of metabolizing the active compounds more quickly via enzyme complexes, i.e. the active compounds are degraded more quickly in the plant), into reduced penetration into the plant, reduced translocation in the plant, accelerated excretion. […]

BRODI [2] = test: Greenhouse test, post-emergence (PO) application, foliar effect; format: in vivo, Bromus diformis; conditions: (A) 50, (B) 20, mixture 50 + 20 g of AS/ha, 3 weeks after application
Text: as §1, §2, §3, §4, §5, §6

AMAPA = test: as above; format: in vivo, Amaranthus palmeri; conditions: AMAPA resistant - group B (TSR), C1 (TSR) and G (NTR), (A) 50, (B) 20, mixture 50 + 20 g of AS/ha, 3 weeks after application
Text: as §1, §2, §3, §4, §5, §6

BIDSU [3] = test: as above; format: in vivo, Bidens subalternans; conditions: BIDSU sensitive, (A) 50, (B) 20, mixture 50 + 20 g of AS/ha, 3 weeks after application
Text: as §1, §2, §3, §4, §5, §6

ALOMY [4] = test: as above; format: in vivo, Alopecurus myosuroides; conditions: ALOMY sensitive, (A) 50, (B) 20, mixture 50 + 20 g of AS/ha, 3 weeks after application
Text: as §1, §2, §3, §4, §5, §6

ERICA [5] = test: as above; format: in vivo, Erigeron canadensis; conditions: (A) 50, (B) 20, mixture 50 + 20 g of AS/ha, 3 weeks after application
Text: as §1, §2, §3, §4, §5, §6

AMATA = test: as above; format: in vivo, Amaranthus rudis; conditions: (A) 50, (B) 20, mixture 50 + 20 g of AS/ha, 3 weeks after application
Text: as §1, §2, §3, §4, §5, §6

ERICA [6] = test: Greenhouse test, pre-emergence (PE) soil application; format: in vivo, Erigeron canadensis; set-up: key: % effect: 0 = no effect, 100 = full effect vs untreated
Text: as §1, §2, §3, §4, §5, §6

BIDSU [7] = test: as above; format: in vivo, Bidens subalternans
Text: as §1, §2, §3, §4, §5, §6

ALOMY [8] = test: as above; format: in vivo, Alopecurus myosuroides
Text: as §1, §2, §3, §4, §5, §6

BRODI [9] = test: as above; format: in vivo, Bromus diformis; set-up: key: % effect: 0 = no effect, 100 = full effect vs untreated
Text: as §1, §2, §3, §4, §5, §6

CHEAL [10] = test: as above; format: in vivo, Chenopodium album; set-up: key: % effect: 0 = no effect, 100 = full effect vs untreated
Text: as §1, §2, §3, §4, §5, §6

CHEAL [11] = test: Greenhouse test, post-emergence (PO) application, foliar effect; format: in vivo, Chenopodium album; conditions: (A) 50, (B) 20, mixture 50 + 20 g of AS/ha, 3 weeks after application
Text: as §1, §2, §3, §4, §5, §6

[12] = system: TTTTT (all resistant and sensitive biotypes); test: Greenhouse test, PO application, mean over all resistant and sensitive biotypes; format: in vivo; conditions: (A) 50, (B) 20, mixture 50 + 20 g of AS/ha; for TTTTT resistant mean (effect): mean of resistant biotypes (n = 17 or n = 15); for TTTTT sensitive mean (effect): mean of sensitive biotypes (n = 11)
Text: as §1, §2, §3, §4, §5, §6

ERIBO = test: Greenhouse test, post-emergence (PO) application, foliar effect; format: in vivo, Erigeron bonariensis; conditions: (A) 50, (B) 20, mixture 50 + 20 g of AS/ha, 3 weeks after application
Text: as §1, §2, §3, §4, §5, §6

KCHSC [13] = test: as above; format: in vivo, Kochia scoparia; conditions: (A) 50, (B) 20, mixture 50 + 20 g of AS/ha, 3 weeks after application
Text: as §1, §2, §3, §4, §5, §6

[14] = group (B) compound alone, 20 g of AS/ha
[15] = BRODI resistant - group A (TSR), B (NTR) and G (NTR)
[16] = ERICA resistant - group B (NA) and G (NTR)
[17] = AMATA resistant - group B (TSR), C1 (TSR)
[18] = CHEAL resistant - group B (TSR), C1 (NA) and G (NTR)
[19] = ERIBO resistant - group B (NA) and G (NTR)
[20] = KCHSC resistant - group B (TSR)

Structure (SMILES) | effect on KCHSC resistant - group B (TSR) (KCHSC [1]; [14]) | effect on KCHSC sensitive (KCHSC [1]; [14]) | foliar effect (BRODI [2]; [15]) [%] | foliar effect (BRODI [2]; BRODI sensitive) [%] | foliar effect (AMAPA) [%] | foliar effect (BIDSU [3]) [%] | foliar effect (ALOMY [4]) [%] | foliar effect (ERICA [5]; [16]) [%] | foliar effect (ERICA [5]; ERICA sensitive) [%] | foliar effect (AMATA; [17]) [%] | foliar effect (AMATA; AMATA sensitive) [%] | effect on ERICA resistant - group B (NA) and G (NTR) (ERICA [6]; [14]) | foliar effect (CHEAL [11]; [18]) [%] | foliar effect (CHEAL [11]; CHEAL sensitive) [%] | TTTTT resistant mean (effect) [12] [%] | TTTTT sensitive mean (effect) [12] [%] | foliar effect (ERIBO; [19]) [%] | foliar effect (ERIBO; ERIBO sensitive) [%] | foliar effect (KCHSC [13]; [20]) [%] | foliar effect (KCHSC [13]; KCHSC sensitive) [%] | also measured
COc1cc(OC)nc(NC(=O)NS(=O)(=O)c2ncccc2C(F)(F)F)n1 [(B1), flazasulfuron] | 0 | 70 | 75 | 100 | 40 | 70 | 100 | 50 | 90 | 50 | 60 | 0 | 70 | 80 | 40 | 87 | 50 | 90 | 0 | 90 | effect on ERICA sensitive (ERICA [6]; [14]): 70; effect on BIDSU sensitive (BIDSU [7]; [14]): 80; effect on ALOMY sensitive (ALOMY [8]; [14]): 100; effect on BRODI resistant - group A (TSR), B (NTR) and G (NTR) (BRODI [9]; [14]): 70; effect on BRODI sensitive (BRODI [9]; [14]): 80; effect on CHEAL resistant - group B (TSR), C1 (NA) and G (NTR) (CHEAL [10]; [14]): 60; effect on CHEAL sensitive (CHEAL [10]; [14]): 88
Cc1ccc2c(c1)[C@H](Nc1nc(N)nc(C(C)F)n1)[C@@H](C)C2 (stereo partly drawn) [(A), indaziflam] |  |  | 65 | 70 | 50 | 40 | 75 | 50 | 50 | 40 | 50 |  | 70 | 70 | 53 | 58 | 50 | 50 | 30 | 30 | effect on KCHSC resistant - group B (TSR) (KCHSC [1]; (A) alone, 12.5 g of AS/ha): 40; effect on KCHSC sensitive (KCHSC [1]; (A) alone, 12.5 g of AS/ha): 40; effect on ERICA resistant - group B (NA) and G (NTR) (ERICA [6]; (A) alone, 12.5 g of AS/ha): 60; effect on ERICA sensitive (ERICA [6]; (A) alone, 12.5 g of AS/ha): 70; effect on BIDSU sensitive (BIDSU [7]; (A) alone, 12.5 g of AS/ha): 50; effect on ALOMY sensitive (ALOMY [8]; (A) alone, 12.5 g of AS/ha): 85; effect on BRODI resistant - group A (TSR), B (NTR) and G (NTR) (BRODI [9]; (A) alone, 12.5 g of AS/ha): 70; effect on BRODI sensitive (BRODI [9]; (A) alone, 12.5 g of AS/ha): 75; effect on CHEAL resistant - group B (TSR), C1 (NA) and G (NTR) (CHEAL [10]; (A) alone, 12.5 g of AS/ha): 65; effect on CHEAL sensitive (CHEAL [10]; (A) alone, 12.5 g of AS/ha): 70
CCS(=O)(=O)c1cccnc1S(=O)(=O)NC(=O)Nc1nc(OC)cc(OC)n1 [(B3), rimsulfuron] | 20 | 80 | 75 | 100 | 70 | 70 | 100 | 60 | 90 | 90 | 70 | 0 | 70 | 80 | 46 | 88 | 60 | 90 | 0 | 90 | effect on ERICA sensitive (ERICA [6]; [14]): 70; effect on BIDSU sensitive (BIDSU [7]; [14]): 80; effect on ALOMY sensitive (ALOMY [8]; [14]): 100; effect on BRODI resistant - group A (TSR), B (NTR) and G (NTR) (BRODI [9]; [14]): 70; effect on BRODI sensitive (BRODI [9]; [14]): 80; effect on CHEAL resistant - group B (TSR), C1 (NA) and G (NTR) (CHEAL [10]; [14]): 45; effect on CHEAL sensitive (CHEAL [10]; [14]): 85
COc1cc(OC)nc(NC(=O)NS(=O)(=O)c2cc(NC=O)ccc2C(=O)N(C)C)n1 [(B2), foramsulfuron] | 0 | 60 | 75 | 100 | 40 | 30 | 100 | 40 | 50 | 90 | 40 | 0 | 70 | 70 | 34 | 74 | 40 | 50 | 0 | 90 | effect on ERICA sensitive (ERICA [6]; [14]): 100; effect on BIDSU sensitive (BIDSU [7]; [14]): 30; effect on ALOMY sensitive (ALOMY [8]; [14]): 90; effect on BRODI resistant - group A (TSR), B (NTR) and G (NTR) (BRODI [9]; [14]): 70; effect on BRODI sensitive (BRODI [9]; [14]): 75; effect on CHEAL resistant - group B (TSR), C1 (NA) and G (NTR) (CHEAL [10]; [14]): 40; effect on CHEAL sensitive (CHEAL [10]; [14]): 80
CCOC(=O)c1ccccc1S(=O)(=O)NC(=O)Nc1nc(Cl)cc(OC)n1 [(B4), chlorimuron-ethyl] | 0 | 50 | 70 | 100 | 30 | 60 | 100 | 60 | 80 | 60 | 30 | 0 | 50 | 60 | 31 | 72 | 60 | 80 | 0 | 90 | effect on ERICA sensitive (ERICA [6]; [14]): 100; effect on BIDSU sensitive (BIDSU [7]; [14]): 90; effect on ALOMY sensitive (ALOMY [8]; [14]): 100; effect on BRODI resistant - group A (TSR), B (NTR) and G (NTR) (BRODI [9]; [14]): 80; effect on BRODI sensitive (BRODI [9]; [14]): 95; effect on CHEAL resistant - group B (TSR), C1 (NA) and G (NTR) (CHEAL [10]; [14]): 60; effect on CHEAL sensitive (CHEAL [10]; [14]): 90
